From patent US9469616B2, “Cyclic compounds and methods of making and using the same” (Cellceutix Corporation, priority 2011, dated 2016)
≈ marks a conversion by molar mass, not a printed value. Where “and” joins values, the source holds several entries; their conditions need not be identical. Equal values may be shown once.

Columns and labels:
E. coli (25922) = experiment: MIC assay (Table 1); format: cell-based; conditions: Escherichia coli, isolate 25922
S. aureus (27660) = experiment: MIC assay (Table 1); format: cell-based; conditions: Staphylococcus aureus, isolate 27660
E. faecalis (29212) = experiment: MIC assay (Table 1); format: cell-based; conditions: Enterococcus faecalis, isolate 29212
Method: (§1) The compounds are screened for antimicrobial activity against a number of clinically relevant pathogens. Minimum Inhibitory Concentrations (MIC) of each of the compounds are determined using standard procedures for clinical ocular isolates of Ciprofloxacin Susceptible (CS) S. aureus (CSSA), Ciprofloxacin Resistant (CR) S. aureus (CRSA), CS S. epidermidis (CSSE), CR S. epidermidis (CRSE), St. pneumoniae (SP), St. viridans group (SV), Moraxella Species (MS) (including Moraxella catarrhalis), H. influenzae (HI), P. aeruginosa (PA), Serratia marcescens (SM), S. aureus fluoroquinolone-susceptible, S. aureus fluoroquinolone-resistant, S. epidermidis (Coagulase-negative Staphylococcus) fluoroquinolone-susceptible, S. epidermidis (Coagulase-negative Staphylococcus) fluoroquinolone-resistant, and Serratia marcescens.
(§2) On the day of testing, a 640 μg/m (1280 μg/m for Serratia marcescens and Pseudomonas aeruginosa) concentration is prepared from a 1% stock solution in 0.01% acetic acid, 0.2% BSA in polypropylene tubes.
(§3) Ten μl of diluted 10× test agents is added to each well of one row of the 96 well polypropylene plates from column 2 to column 12 (column 1 is a control for bacteria alone, with no peptide). […] The same peptide is in each of the 8 rows. One plate contains dilutions of one test agent and 8 bacterial isolates.
(§4) Ninety μl of the bacterial suspensions is dispensed in each well from column 1 to column 12. Each bacterial isolate is placed in one row of a 96 well polypropylene plate containing the test agents. The plates are placed on shaker at 15 minutes at room temperature, and then incubated at 37° C. overnight. MICs are determined visually as the lowest concentration of drug that inhibits visible bacterial growth.
(§5) Data is expressed as MIC50 in μg/ml. The bacterial isolates were as follows: E. coli (25922); S. aureus (27660); E. faecalis (29212); P. aeruginosa (10145); and K. pneumoniae (13883).

K. pneumoniae (13883) = experiment: MIC assay (Table 1); format: cell-based; conditions: Klebsiella pneumoniae, isolate 13883, read-out: MIC50 K. Pnuemnoiae
Method: as §1, §2, §3, §4, §5

P. aeruginosa (10145) = experiment: MIC assay (Table 1); format: cell-based; conditions: Pseudomonas aeruginosa, isolate 10145
Escherichia coli [1] = experiment: Antimicrobial activity (MIC) of aryl compounds (Table 2); format: cell-based; conditions: for MIC: Escherichia coli, Table 2
From the text: (§6) A new series of aryl compounds was designed to evaluate the effect of charge and aromatic group hydrophobicity on the biological activity while still maintaining an amphiphilic topology. Four and six cationic charges were investigated, and three different central rings were used to tune the overall hydrophobicity: benzene, naphthalene, and phenylbenzene. The hydrophobicities of the aryl compounds were quantified using reversed-phase HPLC retention times (Rt). The antimicrobial activities (expressed as minimum inhibitory concentration (MIC)) of these compounds were tested against four pathogens, including both Gram-negative and Gram-positive bacteria, and their hemolysis (evaluated in terms of HC50, the lowest concentration that causes 50% hemolysis of red blood cells (RBCs)) was tested against human RBCs.

Staphylococcus aureus [2] = experiment: as above; format: cell-based; conditions: for MIC: Staphylococcus aureus, Table 2, read-out: MIC S. aureus
From the text: as §6

human RBCs = format: cell-based; conditions: 1 h, pH 7.4
From the text: as §6
Cytotoxicity of the compounds is also evaluated in a hemolysis assay using human erythrocytes. Pooled whole human blood is centrifuged to separate the red blood cells (RBC). The isolated RBCs are rinsed and diluted in Tris-buffered saline (TBS buffer, pH 7.4) to obtain a 0.22% RBC stock suspension. 5 μL of a Compound stock solution is added to 45 μL of RBC suspension and incubated with shaking for 1 hour at 37° C. At the conclusion of the incubation time, samples are centrifuged and 30 μL of the supernatant is added to 100 μL of water. OD414 measurements are read for hemoglobin concentration. The bee venom peptide melittin is used as a positive control. EC50 values are determined as described above.
Cytotoxicity is also evaluated in a hemolysis assay using isolated human erythrocytes. Pooled whole human blood is centrifuged to separate the red blood cells (RBC). The isolated RBCs are rinsed and diluted in Tris-buffered saline (TBS buffer, pH 7.4) to obtain a 0.22% RBC stock suspension. […] OD405 measurements are read for hemoglobin concentration. […] EC50 values are determined using a four parameter logistic equation: Y=Bottom+(Top−Bottom)/(1+10^((Log EC50−X)*HillSlope)).

RAW 264.7 cells = experiment: Cytokine production in RAW 264.7 cells (ELISA); format: cell-based, murine; conditions: 5.0 μg/mL preincubation 1 hour, LPS 100 ng/mL 18 hours; FIG. 1B
NIH/3T3 cells = experiment: Cytotoxicity colorimetric assay; format: cell-based; conditions: Mus musculus, NIH3T3, 1 h, one hour incubation in serum-free media
Method: Cytotoxicity of the compounds are evaluated in a colorimetric assay using a transformed human liver cell line (HepG2, HB-8065) and an embryonic mouse cell line (NIH/3T3 cells, CRL-1658). This assay measures the bioreduction of a novel tetrazolium compound to a soluble formazan product by viable cells. HepG2 cells are seeded in 96 well plates at 2×10^4 cells/well in MEM medium with 10% fetal bovine serum (FBS) 24 hours prior to use. NIH/3T3 cells are seeded in 96 well plates at 2×10^4 cells/well in DMEM medium with 10% bovine calf serum (BCS) 24 hours prior to use. Cell monolayers are rinsed in serum-free media and incubated for one hour with a Compound in serum-free media. After incubation, the media is replaced with serum supplemented media and live cells are measured using the Cell Titer 96 Aqueous […] Assay kit (Promega, Madison, Wis.). EC50 values are determined using a four parameter logistic equation: Y=Bottom+(Top−Bottom)/(1+10^((Log EC50−X)*HillSlope)). […] Data is expressed as EC50 in μg/ml. Cytotoxicity is evaluated in a colorimetric assay using a transformed human liver cell line (HepG2, HB-8065) and an embryonic mouse cell line (NIH/3T3 cells, CRL-1658). This assay measures the bioreduction of a novel tetrazolium compound to a soluble formazan product by viable cells. HepG2 cells are seeded in 96 well plates at 3×10^4 cells/well in MEM medium with 10% fetal bovine serum (FBS) 24 hours prior to use. NIH/3T3 cells are seeded in 96 well plates at 2×10^4 cells/well in DMEM medium with 10% bovine calf serum (BCS) 24 hours prior to use. Cell monolayers are rinsed in serum-free media and incubated for one hour with test agent in serum-free media. After incubation, the media is replaced with serum supplemented media and live cells are measured using the Cell Titer 96 Aqueous […] Assay kit (Promega, Madison, Wis.). EC50 values are determined using a four parameter logistic equation: Y=Bottom+(Top−Bottom)/(1+10^((Log EC50−X)*HillSlope)).

Staphylococcus aureus [3] = conditions: Data from Thaker, et al., J. Med. Chem., 2011, 54, 2241; cited from earlier work
Escherichia coli [4] = conditions: Data from Thaker, et al., J. Med. Chem., 2011, 54, 2241; cited from earlier work

Molecule	MIC50 (E. coli (25922)) [µg/mL]	MIC50 (S. aureus (27660)) [µg/mL]	MIC50 (E. faecalis (29212)) [µg/mL]	MIC50 (K. pneumoniae (13883)) [µg/mL]	MIC50 (P. aeruginosa (10145)) [µg/mL]	MIC (Escherichia coli [1]) [µg/mL]	Selectivity (HC50/MIC) E. coli (Escherichia coli [1])	Selectivity (HC50/MIC) S. aureus (Staphylococcus aureus [2])	MIC (Staphylococcus aureus [2]) [µg/mL]	HC50 (human RBCs) [µg/mL]	LPS-induced TNF production (RAW 264.7 cells)	EC50 (NIH/3T3 cells) [µg/mL]	MIC S. aureus (Staphylococcus aureus [3])	MIC E. coli (Escherichia coli [4])
NCCCOc1cc(OCCCN)cc(-c2ccc3ccc(-c4cc(OCCCN)cc(OCCCN)c4)cc3c2)c1 [Compound 119]	25 (≈ 43.6 µM)	12.5 (≈ 21.8 µM)	6.25 (≈ 10.9 µM)	50 (≈ 87.3 µM)	25 (≈ 43.6 µM)	25 (≈ 43.6 µM)	7.8	15.6	12.5 (≈ 21.8 µM)	195	did not cause any additional increase in TNF production			
NCCCOc1cc(-c2cc(-c3ccccc3)cc(-c3cc(OCCCN)c(OCCCN)c(OCCCN)c3)c2)cc(OCCCN)c1OCCCN [Compound 115]	6.25 (≈ 8.39 µM)	12.5 (≈ 16.8 µM)	> 50	12.5 (≈ 16.8 µM)	25 (≈ 33.6 µM)	6.25 (≈ 8.39 µM)	>160	>160	6.25 (≈ 8.39 µM)	>1000	did not cause any additional increase in TNF production	110 (≈ 147 µM)		
MSI-78													16 µg/mL and 8 to 16 µg/mL	16 µg/mL and 16 to 32 µg/mL
